Results: patent publication US20240025875A1, “A COMPOUND AS A THYROID HORMONE BETA RECEPTOR AGONIST AND USE THEREOF” (SUNSHINE LAKE PHARMA CO., LTD., priority 2020, published 2024)

Legend:
[1] = biological target: T1, TRα (Homo sapiens, UniProt P10827); test: LanthaScreen TR-FRET Thyroid Receptor alfa Coactivator Assay (in vitro binding activity); conditions: TR alfa-LBD
T1 construct: 5 μL of 4×TR beta/alfa-LBD; purchased Invitrogen PV4687
Procedure: (§1) 2. Detection of the Binding Activity of the Compound of the Present Invention to TRα or TRβ In Vitro
(§2) Test Materials • LanthaScreen TR-FRET Thyroid Receptor beta Coactivator Assay kit was purchased from Invitrogen, Cat. No. PV4686; • LanthaScreen TR-FRET Thyroid Receptor alfa Coactivator Assay kit was purchased from Invitrogen, Cat. No. PV4687.
(§3) The method was experimented with LanthaScreen TR-FRET Thyroid Receptor beta/alfa Coactivator Assay kit. The test compound was dissolved in DMSO and diluted 3 times to a total of 10 concentrations, and then diluted with TR-FRET Coregulator Buffer C in the kit to form a solution containing 2% DMSO, 10 μL of the solution containing 2% DMSO was taken into a 384-well plate, then 5 μL of 4×TR beta/alfa-LBD, 5 μL of a mixture containing 0.4 μM fluorescein-SRC2-2 and 8 nM Tb anti-GST antibody were added into each well, mixed thoroughly, and incubated at room temperature for 1 h in the dark. After 1 h, BMG LABTECH's PHERAstar FSX microplate reader was used to read the fluorescence value (RFU) at […]. The TR-FRET ratio was calculated by dividing the emission signal at 520 nm by the emission signal at 495 nm. Graph Pad Prism 5 software was used to draw the curve and calculate the EC50 value. The in vitro binding activity test results of some of the compounds of the examples of the present invention are shown in Table 1 below.

[2] = biological target: T2, TRβ (Homo sapiens, UniProt P10828); test: LanthaScreen TR-FRET Thyroid Receptor beta Coactivator Assay (in vitro binding activity); conditions: TR beta-LBD
T2 construct: 5 μL of 4×TR beta/alfa-LBD; purchased Invitrogen PV4686
T2 sequence (P10828 217-461 limits assumed): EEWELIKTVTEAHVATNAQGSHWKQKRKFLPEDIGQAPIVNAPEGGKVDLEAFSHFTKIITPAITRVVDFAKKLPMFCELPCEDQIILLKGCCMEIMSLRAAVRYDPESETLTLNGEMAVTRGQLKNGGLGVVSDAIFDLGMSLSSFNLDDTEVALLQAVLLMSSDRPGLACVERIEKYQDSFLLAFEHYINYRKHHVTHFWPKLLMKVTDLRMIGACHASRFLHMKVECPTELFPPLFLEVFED
Procedure: as §1, §2, §3

T1 sequence (P10827 163-410 isoform P10827-2 limits assumed, other chains not shown): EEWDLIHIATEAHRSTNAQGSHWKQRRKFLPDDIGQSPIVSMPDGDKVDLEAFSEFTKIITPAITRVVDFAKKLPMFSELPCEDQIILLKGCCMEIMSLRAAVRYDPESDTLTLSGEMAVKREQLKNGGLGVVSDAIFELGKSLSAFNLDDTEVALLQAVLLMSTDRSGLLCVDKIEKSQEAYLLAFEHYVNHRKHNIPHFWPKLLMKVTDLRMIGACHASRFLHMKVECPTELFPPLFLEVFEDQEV

SMILES	EC50 [1] [µM]	EC50 [2] [µM]
N#Cc1nn(-c2cc(Cl)c(Oc3ccc4c(c3)CCNC4=O)c(Cl)c2)c(=O)[nH]c1=O [Example 1, 2-(3,5-dichloro-4-((1-oxo-1,2,3,4-tetrahydroisoquinolin-6-yl)oxy)phenyl)-3,5-dioxo-2,3,4,5-tetrahydro-1,2,4-triazine-6-carbonitrile]	> 100	0.26
N#Cc1nn(-c2cc(Cl)c(Oc3ccc4c(c3)NC(=O)CC4)c(Cl)c2)c(=O)[nH]c1=O [Example 8, 2-(3,5-dichloro-4-((2-oxo-1,2,3,4-tetrahydroquinolin-7-yl)oxy)phenyl)-3,5-dioxo-2,3,4,5-tetrahydro-1,2,4-triazine-6-carbonitrile]	> 100	> 10
Cc1ccc(F)cc1CN1CCc2cc(Oc3c(Cl)cc(-n4ncc(=O)[nH]c4=O)cc3Cl)ccc2C1=O [Example 40, 2-(3,5-dichloro-4-((2-(5-fluoro-2-methylbenzyl)-1-oxo-1,2,3,4-tetrahydroisoquinolin-6-yl)oxy)phenyl)-1,2,4-triazine-3,5(2H,4H)-dione]	0.179	< 0.0046
O=C1c2ccc(Oc3c(Cl)cc(-n4ncc(=O)[nH]c4=O)cc3Cl)cc2CCN1c1nccs1 [Example 52, 2-(3,5-dichloro-4-((1-oxo-2-(thiazol-2-yl)-1,2,3,4-tetrahydroisoquinolin-6-yl)oxy)phenyl)-1,2,4-triazine-3,5(2H,4H)-dione]	0.23	0.016
Cc1ccc(N2CCc3cc(Oc4c(Cl)cc(-n5nc(C#N)c(=O)[nH]c5=O)cc4Cl)ccc3C2=O)cc1 [Example 27, 2-(3,5-dichloro-4-((1-oxo-2-(p-tolyl)-1,2,3,4-tetrahydroisoquinolin-6-yl)oxy)phenyl)-3,5-dioxo-2,3,4,5-tetrahydro-1,2,4-triazine-6-carbonitrile]	> 100	0.14
CCOCN1CCc2cc(Oc3c(Cl)cc(-n4nc(C#N)c(=O)[nH]c4=O)cc3Cl)ccc2C1=O [Example 4, 2-(3,5-dichloro-4-((2-(ethoxymethyl)-1-oxo-1,2,3,4-tetrahydroisoquinolin-6-yl)oxy)phenyl)-3,5-dioxo-2,3,4,5-tetrahydro-1,2,4-triazine-6-carbonitrile]	0.21	0.018
CC(C)OCN1CCc2cc(Oc3c(Cl)cc(-n4nc(C#N)c(=O)[nH]c4=O)cc3Cl)ccc2C1=O [Example 13, 2-(3,5-Dichloro-4-((2-(isopropoxymethyl)-1-oxo-1,2,3,4-tetrahydroisoquinolin-6-yl)oxy)phenyl)-3,5-dioxo-2,3,4,5-tetrahydro-1,2,4-triazine-6-carbonitrile]	0.073	0.013
COCN1CCc2cc(Oc3c(Cl)cc(-n4nc(C#N)c(=O)[nH]c4=O)cc3Cl)ccc2C1=O [Example 3, 2-(3,5-dichloro-4-((2-(methoxymethyl)-1-oxo-1,2,3,4-tetrahydroisoquinolin-6-yl)oxy)phenyl)-3,5-dioxo-2,3,4,5-tetrahydro-1,2,4-triazine-6-carbonitrile]	0.29	0.026
O=C1c2ccc(Oc3c(Cl)cc(-n4ncc(=O)[nH]c4=O)cc3Cl)cc2CCN1Cc1ccc(F)c(Cl)c1 [Example 35, 2-(3,5-dichloro-4-((2-(3-chloro-4-fluorobenzyl)-1-oxo-1,2,3,4-tetrahydroisoquinolin-6-yl)oxy)phenyl)-1,2,4-triazine-3,5(2H,4H)-dione]	0.092	< 0.0046
N#Cc1nn(-c2cc(Cl)c(Oc3ccc4c(c3)CCN(C=O)C4=O)c(Cl)c2)c(=O)[nH]c1=O [Example 51, 2-(3,5-dichloro-4-((2-formyl-1-oxo-1,2,3,4-tetrahydroisoquinolin-6-yl)oxy)phenyl)-3,5-dioxo-2,3,4,5-tetrahydro-1,2,4-triazine-6-carbonitrile]	> 100	0.904
COc1cccc(CN2CCc3cc(Oc4c(Cl)cc(-n5ncc(=O)[nH]c5=O)cc4Cl)ccc3C2=O)c1 [Example 36, 2-(3,5-dichloro-4-((2-(3-methoxybenzyl)-1-oxo-1,2,3,4-tetrahydroisoquinolin-6-yl)oxy)phenyl)-1,2,4-triazine-3,5(2H,4H)-dione]	0.079	< 0.0046
O=C1c2ccc(Oc3c(Cl)cc(-n4ncc(=O)[nH]c4=O)cc3Cl)cc2CCN1CC1CCOCC1 [Example 23, 2-(3,5-dichloro-4-((1-oxo-2-((tetrahydro-2H-pyran-4-yl)methyl)-1,2,3,4-tetrahydroisoquinolin-6-yl)oxy)phenyl)-1,2,4-triazine-3,5(2H,4H)-dione]	0.386	0.013
N#Cc1nn(-c2cc(Cl)c(Oc3ccc4c(c3)CCN(COCC(F)F)C4=O)c(Cl)c2)c(=O)[nH]c1=O [Example 15, 2-(3,5-dichloro-4-((1-oxo-2-((2,2-difluoroethoxy)methyl)-1,2,3,4-tetrahydroisoquinolin-6-yl)oxy)phenyl)-3,5-dioxo-2,3,4,5-tetrahydro-1,2,4-triazine-6-carbonitrile]	0.176	0.024
N#Cc1nn(-c2cc(Cl)c(Oc3ccc4c(c3)CCN(COCC(F)(F)F)C4=O)c(Cl)c2)c(=O)[nH]c1=O [Example 14, 2-(3,5-Dichloro-4-((1-oxo-2-((2,2,2-trifluoroethoxy)methyl)-1,2,3,4-tetrahydroisoquinolin-6-yl)oxy)phenyl)-3,5-dioxo-2,3,4,5-tetrahydro-1,2,4-triazine-6-carbonitrile]	0.226	0.03
N#Cc1nn(-c2cc(Cl)c(Oc3ccc4c(c3)CCN(CC3CCOCC3)C4=O)c(Cl)c2)c(=O)[nH]c1=O [Example 12, 2-(3,5-Dichloro-4-((1-oxo-2-((tetrahydro-2H-pyran-4-yl)methyl)-1,2,3,4-tetrahydroisoquinolin-6-yl)oxy)phenyl)-3,5-dioxo-2,3,4,5-tetrahydro-1,2,4-triazine-6-carbonitrile]	0.451	0.021

The remaining lines, values ahead:

EC50 [1] [µM]	EC50 [2] [µM]	SMILES
> 100	0.11	N#Cc1nn(-c2cc(Cl)c(Oc3ccc4c(c3)CCN(Cc3ccccc3F)C4=O)c(Cl)c2)c(=O)[nH]c1=O [Example 33d, 2-(3,5-Dichloro-4-((2-(2-fluorobenzyl)-1-oxo-1,2,3,4-tetrahydroisoquinolin-6-yl)oxy)phenyl)-3,5-dioxo-2,3,4,5-tetrahydro-1,2,4-triazine-6-carbonitrile]
> 100	0.214	N#Cc1nn(-c2cc(Cl)c(Oc3ccc4c(c3)CCN(c3ccccn3)C4=O)c(Cl)c2)c(=O)[nH]c1=O [Example 47f, 2-(3,5-dichloro-4-((1-oxo-2-(pyridin-2-yl)-1,2,3,4-tetrahydroisoquinolin-6-yl)oxy)phenyl)-3,5-dioxo-2,3,4,5-tetrahydro-1,2,4-triazine-6-carbonitrile]
> 100	0.769	N#Cc1nn(-c2cc(Cl)c(Oc3ccc4c(c3)CCN(c3cccnc3)C4=O)c(Cl)c2)c(=O)[nH]c1=O [Example 49f, 2-(3,5-dichloro-4-((1-oxo-2-(pyridin-3-yl)-1,2,3,4-tetrahydroisoquinolin-6-yl)oxy)phenyl)-3,5-dioxo-2,3,4,5-tetrahydro-1,2,4-triazine-6-carbonitrile]
> 100	0.065	N#Cc1nn(-c2cc(Cl)c(Oc3ccc4c(c3)CCN(Cc3ccc(F)c(F)c3)C4=O)c(Cl)c2)c(=O)[nH]c1=O [Example 30d, 2-(3,5-dichloro-4-((2-(3,4-difluorobenzyl)-1-oxo-1,2,3,4-tetrahydroisoquinolin-6-yl)oxy)phenyl)-3,5-dioxo-2,3,4,5-tetrahydro-1,2,4-triazine-6-carbonitrile]
2.62	0.213	N#Cc1nn(-c2cc(Cl)c(Oc3ccc4c(c3)CCN(c3ncccn3)C4=O)c(Cl)c2)c(=O)[nH]c1=O [Example 50f, 2-(3,5-dichloro-4-((1-oxo-2-(pyrimidin-2-yl)-1,2,3,4-tetrahydroisoquinolin-6-yl)oxy)phenyl)-3,5-dioxo-2,3,4,5-tetrahydro-1,2,4-triazine-6-carbonitrile]
> 100	0.368	Cc1ccc(CN2CCc3cc(Oc4c(Cl)cc(-n5nc(C#N)c(=O)[nH]c5=O)cc4Cl)ccc3C2=O)cc1 [Example 21d, 2-(3,5-dichloro-4-((2-(4-methylbenzyl)-1-oxo-1,2,3,4-tetrahydroisoquinolin-6-yl)oxy)phenyl)-3,5-dioxo-2,3,4,5-tetrahydro-1,2,4-triazine-6-carbonitrile]
> 100	0.08	N#Cc1nn(-c2cc(Cl)c(Oc3ccc4c(c3)CCN(Cc3ccc(F)c(Cl)c3)C4=O)c(Cl)c2)c(=O)[nH]c1=O [Example 35d, 2-(3,5-dichloro-4-((2-(3-chloro-4-fluorobenzyl)-1-oxo-1,2,3,4-tetrahydroisoquinolin-6-yl)oxy)phenyl)-3,5-dioxo-2,3,4,5-tetrahydro-1,2,4-triazine-6-carbonitrile]
